Measured values from article PMC5664438, “The novel isoxazoline ectoparasiticide lotilaner (Credelio™): a non-competitive antagonist specific to invertebrates γ-aminobutyric acid-gated chloride channels (GABACls)” (Parasites & Vectors, 2017).
Entries after “also recorded” stand apart in the source; their conditions may differ. Like-named read-outs stand apart in the source and are kept apart here.

Key:
DmS-GABA receptor [1] = molecular target: T1, DmS-GABA receptor (Drosophila melanogaster, UniProt P25123); assay: Co-application protocol (GABA plus drug, no pre-incubation), TEVC on oocytes expressing DmS-GABA; conditions: GABA 1 μM + 100 nM drug
T1 sequence (P25123 45-606 isoform P25123-1 limits assumed): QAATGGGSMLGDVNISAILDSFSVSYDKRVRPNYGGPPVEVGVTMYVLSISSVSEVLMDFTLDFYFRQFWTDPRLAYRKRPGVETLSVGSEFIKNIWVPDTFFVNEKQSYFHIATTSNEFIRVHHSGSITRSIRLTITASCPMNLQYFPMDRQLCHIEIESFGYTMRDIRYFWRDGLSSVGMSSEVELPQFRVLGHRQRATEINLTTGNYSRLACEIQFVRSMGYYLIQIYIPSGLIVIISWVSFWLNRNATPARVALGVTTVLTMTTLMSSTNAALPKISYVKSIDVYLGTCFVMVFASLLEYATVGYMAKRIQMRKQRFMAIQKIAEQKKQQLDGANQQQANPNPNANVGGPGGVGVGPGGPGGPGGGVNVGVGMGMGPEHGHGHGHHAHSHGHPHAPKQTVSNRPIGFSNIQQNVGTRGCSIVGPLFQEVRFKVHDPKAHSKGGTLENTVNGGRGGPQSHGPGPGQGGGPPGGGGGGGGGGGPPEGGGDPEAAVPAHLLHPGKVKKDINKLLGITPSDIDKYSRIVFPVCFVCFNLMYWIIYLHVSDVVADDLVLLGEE

[2] = molecular target: T2, DmS-GABA (wild type GABACl, RDLac) (Drosophila melanogaster, UniProt P25123); assay: Antagonist cumulative pre-application concentration-inhibition, TEVC on oocytes expressing DmS-GABA; format: cell-based; conditions: for nH (Hill coefficient): concentration-inhibition curve
T2 construct: expressed in transfected cells; host or cells: Xenopus laevis oocytes injected with in vitro-transcribed capped cRNA (gene synthesised at Genewiz, pT7-TS vector)
T2 sequence (P25123 45-606 isoform P25123-1 limits assumed): T1 sequence (P25123 45-606 isoform P25123-1 limits assumed)
Text: (§1) The agonist and the drug were then washed off for 15 s and the oocyte exposed again to the same drug concentration for 15 s before increasing to the next concentration.
In a first step, we investigated the effect of lotilaner on the very well characterized D. melanogaster GABACl.

DmS-GABA receptor [3] = molecular target: T1, DmS-GABA receptor; assay: GABA concentration-response relationships for DmS-GABA in absence and presence of lotilaner; format: cell-based; design: expressed in transfected cells; host or cells: Xenopus laevis oocytes injected with in vitro-transcribed capped cRNA (gene synthesised at Genewiz, pT7-TS vector); conditions: normalized to initial 100 μM GABA application
Text: Statistical comparisons were done using unpaired Student’s t test.

Cl-GABAA α1β2γ2 [4] = molecular target: T3, Cl-GABAA α1β2γ2 (Canis lupus familiaris, UniProt A0A2H4NNI8+A0A2H4NNJ3+E2RSQ0); assay: Antagonist cumulative pre-application concentration-inhibition, TEVC on oocytes expressing Cl-GABAA α1β2γ2; format: cell-based
T3 sequence (E2RSQ0 entry or part of it): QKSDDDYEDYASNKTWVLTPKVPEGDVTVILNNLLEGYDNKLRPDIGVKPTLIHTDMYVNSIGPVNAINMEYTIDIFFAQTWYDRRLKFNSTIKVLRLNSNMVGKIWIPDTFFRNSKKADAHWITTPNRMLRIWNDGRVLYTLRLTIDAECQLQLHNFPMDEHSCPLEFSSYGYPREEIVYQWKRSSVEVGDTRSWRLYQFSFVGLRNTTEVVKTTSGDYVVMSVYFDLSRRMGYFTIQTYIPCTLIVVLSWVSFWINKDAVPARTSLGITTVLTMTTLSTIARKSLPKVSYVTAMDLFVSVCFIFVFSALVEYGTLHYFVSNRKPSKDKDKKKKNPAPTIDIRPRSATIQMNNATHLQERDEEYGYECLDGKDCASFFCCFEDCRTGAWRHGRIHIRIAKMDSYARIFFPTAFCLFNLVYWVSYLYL
T3 sequence (A0A2H4NNJ3 entry or part of it): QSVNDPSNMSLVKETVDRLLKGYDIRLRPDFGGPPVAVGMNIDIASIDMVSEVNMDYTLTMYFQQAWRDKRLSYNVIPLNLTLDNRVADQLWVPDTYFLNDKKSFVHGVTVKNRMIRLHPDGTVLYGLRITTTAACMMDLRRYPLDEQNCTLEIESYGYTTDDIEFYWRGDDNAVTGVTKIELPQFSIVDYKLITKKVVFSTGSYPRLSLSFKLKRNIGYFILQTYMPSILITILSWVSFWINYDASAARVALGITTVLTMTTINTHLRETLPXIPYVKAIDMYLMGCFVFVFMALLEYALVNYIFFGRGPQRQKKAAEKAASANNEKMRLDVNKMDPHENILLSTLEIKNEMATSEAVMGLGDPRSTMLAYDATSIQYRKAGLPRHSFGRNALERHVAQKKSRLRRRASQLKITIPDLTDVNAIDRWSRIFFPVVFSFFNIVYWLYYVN
T3 sequence (A0A2H4NNI8 entry or part of it): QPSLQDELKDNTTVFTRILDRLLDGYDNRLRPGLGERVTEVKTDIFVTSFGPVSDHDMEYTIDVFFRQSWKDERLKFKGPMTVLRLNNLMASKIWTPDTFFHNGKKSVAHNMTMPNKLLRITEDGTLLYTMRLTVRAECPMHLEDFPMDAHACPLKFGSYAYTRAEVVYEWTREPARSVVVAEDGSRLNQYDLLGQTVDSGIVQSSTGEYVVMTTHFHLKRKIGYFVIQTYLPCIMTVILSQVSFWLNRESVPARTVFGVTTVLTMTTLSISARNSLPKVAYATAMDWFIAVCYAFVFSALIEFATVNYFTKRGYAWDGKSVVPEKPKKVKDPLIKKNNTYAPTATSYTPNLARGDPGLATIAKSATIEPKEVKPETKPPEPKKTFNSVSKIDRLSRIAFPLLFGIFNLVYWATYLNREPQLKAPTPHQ

Rm-GABA [5] = molecular target: T4, Rm-GABA (Rhipicephalus microplus, UniProt C8CGT5); assay: Antagonist cumulative pre-application concentration-inhibition, TEVC on oocytes expressing Rm-GABA; format: cell-based; conditions: for nH (Hill coefficient): Rm-GABA, concentration-inhibition curve
T4 sequence (C8CGT5 entry or part of it): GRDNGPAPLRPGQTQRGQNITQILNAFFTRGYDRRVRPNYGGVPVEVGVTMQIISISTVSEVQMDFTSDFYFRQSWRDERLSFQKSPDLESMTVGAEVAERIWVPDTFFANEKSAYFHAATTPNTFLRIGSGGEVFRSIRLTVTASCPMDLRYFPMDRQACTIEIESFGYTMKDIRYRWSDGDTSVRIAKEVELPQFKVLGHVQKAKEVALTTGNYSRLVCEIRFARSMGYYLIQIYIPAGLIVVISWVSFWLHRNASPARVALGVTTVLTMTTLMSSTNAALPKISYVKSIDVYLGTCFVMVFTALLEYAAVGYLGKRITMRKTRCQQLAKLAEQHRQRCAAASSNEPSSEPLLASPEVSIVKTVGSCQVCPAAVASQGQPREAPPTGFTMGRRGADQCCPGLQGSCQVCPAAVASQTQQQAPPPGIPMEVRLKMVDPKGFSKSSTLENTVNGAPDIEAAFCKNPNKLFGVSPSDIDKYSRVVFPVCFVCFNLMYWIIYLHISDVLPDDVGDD

Ls-GABA1 [6] = molecular target: T5, Ls-GABA1 (Lepeophtheirus salmonis, UniProt A0A2H4NNJ4); assay: Antagonist cumulative pre-application concentration-inhibition, TEVC on oocytes expressing Ls-GABA1; format: cell-based; conditions: for nH (Hill coefficient): concentration-inhibition curve
T5 sequence (A0A2H4NNJ4 entry or part of it): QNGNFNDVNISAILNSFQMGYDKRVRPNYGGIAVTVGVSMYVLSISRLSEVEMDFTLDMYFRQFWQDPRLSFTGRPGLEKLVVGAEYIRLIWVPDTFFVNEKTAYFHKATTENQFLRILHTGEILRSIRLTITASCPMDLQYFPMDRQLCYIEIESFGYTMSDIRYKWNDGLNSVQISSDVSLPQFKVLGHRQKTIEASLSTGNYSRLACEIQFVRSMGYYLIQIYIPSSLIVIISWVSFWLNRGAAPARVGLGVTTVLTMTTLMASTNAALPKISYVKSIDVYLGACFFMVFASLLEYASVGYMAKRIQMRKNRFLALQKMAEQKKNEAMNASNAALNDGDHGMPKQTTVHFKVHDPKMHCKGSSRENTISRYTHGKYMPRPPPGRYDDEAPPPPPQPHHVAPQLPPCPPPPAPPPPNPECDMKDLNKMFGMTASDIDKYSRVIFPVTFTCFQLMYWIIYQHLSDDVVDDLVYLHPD

R. microplus GABACls = test system: R. microplus GABACls; design: method as in PMID 24365472; conditions: cited from earlier work
M. domestica GABACls = test system: M. domestica GABACls; design: method as in PMID 19944072; conditions: cited from earlier work
[7] = Biological activity of the enantiomers in vivo (data not shown)
[8] = test system: D. melanogaster S302 form; design: method as in PMID 24365472; conditions: cited from earlier work
Cl-GABAA α1β2γ2 [9] = molecular target: T3, Cl-GABAA α1β2γ2; assay: GABA concentration-activation, two-electrode voltage clamp on Xenopus oocytes expressing Cl-GABAA α1β2γ2; format: cell-based
Description: Capped cRNAs were synthesized (T7 mMessage mMachine kit, Ambion, Austin, TX, USA) from the linearized vectors containing the different subunits according to the manufacturer’s protocol. cRNA samples were stored at -80 °C until use. Oocytes were prepared and injected using standard procedures. Briefly, ovaries were harvested from Xenopus females that were deeply anesthetized by cooling down at 4 °C and with exposure to tricaine mesylate (3-aminobenzoic acid ethyl ester, methane sulfonate salt, 150 mg/l). The animal care of Xenopus laevis (accreditation de l’animalerie HiQScreen N° 171) and sacrifice was done according to the guidance set by the veterinary authorities of the canton of Geneva based on art.18 on the animal welfare legislation (LPA, art. 141 Ordonnance sur la protection des animaux, OPAn) with the authorization N° 27479 GE/15/16). Small pieces of ovary were isolated in a sterile Barth solution containing: NaCl (88 mM), KCl (1 mM), NaHCO3 (2.4 mM), HEPES (10 mM, pH 7.5), MgSO4·7H2O (0.82 mM), Ca(NO3)2·4H2O (0.33 mM), CaCl2·6H2O (0.41 mM), at pH 7.4, and supplemented with 20 μg/ml of kanamycin, 100 U/ml penicillin and 100 μg/ml streptomycin. Oocytes were microinjected using a Roboinject automatic injection system (Multi Channel Systems, Reutlingen, Germany) with 15–25 nl of cRNA solution (5–50 ng/μl) and then incubated at 18 °C in sterile filtered Barth solution. […]

Rm-GABA [10] = molecular target: T4, Rm-GABA; assay: cell-based
Description: (§2) Capped cRNAs were synthesized (T7 mMessage mMachine kit, Ambion, Austin, TX, USA) from the linearized vectors containing the different subunits according to the manufacturer’s protocol. cRNA samples were stored at -80 °C until use. Oocytes were prepared and injected using standard procedures. Briefly, ovaries were harvested from Xenopus females that were deeply anesthetized by cooling down at 4 °C and with exposure to tricaine mesylate (3-aminobenzoic acid ethyl ester, methane sulfonate salt, 150 mg/l). The animal care of Xenopus laevis (accreditation de l’animalerie HiQScreen N° 171) and sacrifice was done according to the guidance set by the veterinary authorities of the canton of Geneva based on art.18 on the animal welfare legislation (LPA, art. 141 Ordonnance sur la protection des animaux, OPAn) with the authorization N° 27479 GE/15/16). Small pieces of ovary were isolated in a sterile Barth solution containing: NaCl (88 mM), KCl (1 mM), NaHCO3 (2.4 mM), HEPES (10 mM, pH 7.5), MgSO4·7H2O (0.82 mM), Ca(NO3)2·4H2O (0.33 mM), CaCl2·6H2O (0.41 mM), at pH 7.4, and supplemented with 20 μg/ml of kanamycin, 100 U/ml penicillin and 100 μg/ml streptomycin. Oocytes were microinjected using a Roboinject automatic injection system (Multi Channel Systems, Reutlingen, Germany) with 15–25 nl of cRNA solution (5–50 ng/μl) and then incubated at 18 °C in sterile filtered Barth solution. Recordings were made 1–6 days post-cRNA injection.
(§3) . In experiments in which the channel was challenged several times by GABA, enough time was allowed between applications for the channel to recover from desensitization. […]; 10 μM for DmS-GABA and DmR2-GABA; 50 μM for Rm-GABA; and 500 μM for Ls-GABA1). The agonist and the drug were then washed off for 15 s and the oocyte exposed again to the same drug concentration for 15 s before increasing to the next concentration.
(§4) . (1) and normalized to the fitted maximal current amplitude. […] . Table 1 and Additional file 3: Figure S1f). The Hill coefficients were higher than 1 for the five receptors (Table 1) indicating the presence of more than one agonist binding site per receptor. These values were obtained from peak current amplitudes. […]; Table 1 and Additional file 3: Figure S1f).

Ls-GABA1 [11] = molecular target: T5, Ls-GABA1; assay: cell-based
Description: as §2, §3, §4

[12] = molecular target: T2, DmS-GABA (wild type GABACl, RDLac); assay: GABA concentration-activation, two-electrode voltage clamp on Xenopus oocytes expressing DmS-GABA; format: cell-based; conditions: GABA concentration-activation curve
Description: as §2, with “The animal care of Xenopus laevis (accreditation de l’animalerie HiQScreen N° 171) and sacrifice was done according to the guidance set by the veterinary authorities of the canton of Geneva based on art.18 on the animal welfare legislation (LPA, art. 141 Ordonnance sur la protection des animaux, OPAn) with the authorization N° 27479 GE/15/16).” left out
as §1
(1) and normalized to the fitted maximal current amplitude.

SMILES: Cc1cc(C2=NO[C@@](c3cc(Cl)c(Cl)c(Cl)c3)(C(F)(F)F)C2)sc1C(=O)NCC(=O)NCC(F)(F)F [Lotilaner, lotilaner]
- potentiation of peak current at first co-application (DmS-GABA receptor [1]; on average): > 30%
- potentiation of tail current at first co-application (DmS-GABA receptor [1]; on average): > 10%
- GABA current inhibition ([2]; DmS-GABA, GABA 10 μM, lotilaner concentrations > 1 μM): almost complete GABA current inhibition
- nH (Hill coefficient) ([2]; DmS-GABA): -0.64 ± 0.03
- IC50 ([2]; read-out: IC50): 0.0238 ± 0.00187 µM
- GABA Rmax in presence of 0.1 μM lotilaner (DmS-GABA receptor [3]; lotilaner 0.1 μM): 50.98 ± 0.47%
- GABA Rmax in presence of 1 μM lotilaner (DmS-GABA receptor [3]; lotilaner 1 μM): 13.65 ± 1.12%
- IC50 (Cl-GABAA α1β2γ2 [4]): > 10 µM
- nH (Hill coefficient) (Cl-GABAA α1β2γ2 [4]; Cl-GABAA α1β2γ2, concentration-inhibition curve): -0.09 ± 0.02
- inhibitory effect / activity on dog GABAA receptor (Cl-GABAA α1β2γ2 [4]; Cl-GABAA α1β2γ2, up to the highest dose tested, 10 μM): no activity; also recorded: No obvious inhibitory effect
- IC50 (Rm-GABA [5]): 0.0368 ± 0.00439 µM
- nH (Hill coefficient) (Rm-GABA [5]): -0.47 ± 0.03
- IC50 (Ls-GABA1 [6]): 0.0524 ± 0.00454 µM
- fold lower IC50 value compared to fipronil (Ls-GABA1 [6]; Ls-GABA1): 3 fold
- nH (Hill coefficient) (Ls-GABA1 [6]; Ls-GABA1): -0.75 ± 0.04

SMILES: Cc1cc(C2=NOC(c3cc(Cl)cc(Cl)c3)(C(F)(F)F)C2)ccc1C(=O)NCC(=O)NCC(F)(F)F (stereo not drawn) [fluralaner]
- higher inhibitor potency over fipronil (R. microplus GABACls): 5 fold
- higher inhibitor potency over fipronil (M. domestica GABACls): 5 fold

SMILES: ClC1=C(Cl)[C@]2(Cl)[C@@H]3[C@@H]4C[C@@H]([C@H]5O[C@@H]45)[C@@H]3[C@@]1(Cl)C2(Cl)Cl [Dieldrin, dieldrin, reference compound]
- IC50 [2]: 4.17 ± 0.92 µM
- nH (Hill coefficient) ([2]; DmS-GABA): -0.45 ± 0.05

SMILES: Cc1cc(C2=NO[C@](c3cc(Cl)c(Cl)c(Cl)c3)(C(F)(F)F)C2)sc1C(=O)NCC(=O)NCC(F)(F)F [AHC-2229544]
- slight decrease in both peaks and tails currents (DmS-GABA receptor [1]): < 10%
- nH (Hill coefficient) ([2]; DmS-GABA): -0.30 ± 0.03
- inhibition of the GABA-induced current ([2]; DmS-GABA, up to 0.3 μM): no inhibition
- IC50 ([2]; read-out: IC50): 0.959 ± 0.268 µM
- less biological activity than the S-enantiomer [7]: 100 ×

SMILES: N#Cc1nn(-c2c(Cl)cc(C(F)(F)F)cc2Cl)c(N)c1[S+]([O-])C(F)(F)F (stereo not drawn) [Fipronil, fipronil, reference compound]
- loss of potency [8]: 18 fold
- IC50 [2]: 0.0276 ± 0.00171 µM
- nH (Hill coefficient) ([2]; DmS-GABA): -0.85 ± 0.04
- IC50 (Rm-GABA [5]): 0.0256 ± 0.00225 µM
- nH (Hill coefficient) (Rm-GABA [5]): -0.56 ± 0.03
- IC50 (Ls-GABA1 [6]): 0.165 ± 0.0118 µM
- nH (Hill coefficient) (Ls-GABA1 [6]; Ls-GABA1): -0.78 ± 0.04

SMILES: NCCCC(=O)O [GABA, γ-aminobutyric acid]
- EC50 (Cl-GABAA α1β2γ2 [9]; EC50 (μM), natural agonist GABA, ± SEM): 1.8 ± 0.14 µM
- nH (Hill coefficient) (Cl-GABAA α1β2γ2 [9]; GABA concentration-activation curve): 1.31 ± 0.12
- GABA Rmax (DmS-GABA receptor [3]; GABA alone): 97.706 ± 2.45%
- EC50 (Rm-GABA [10]): 50 ± 0.76 µM
- nH (Hill coefficient) (Rm-GABA [10]; Rm-GABA, GABA concentration-activation curve): 2.27 ± 0.19
- EC50 (Ls-GABA1 [11]): 393 ± 11.1 µM
- nH (Hill coefficient) (Ls-GABA1 [11]; Ls-GABA1, GABA concentration-activation curve): 1.35 ± 0.04
- nH (Hill coefficient) [12]: 1.57 ± 0.15
